# Data: US11180474B2 (BRISTOL-MYERS SQUIBB COMPANY, priority 2016, dated 2021)
# Biological target: T1, human TLR8 (Homo sapiens, UniProt Q9NR97)
# T1 construct: host or cells: HEK-Blue cells
# T1 sequence (Q9NR97 27-1041): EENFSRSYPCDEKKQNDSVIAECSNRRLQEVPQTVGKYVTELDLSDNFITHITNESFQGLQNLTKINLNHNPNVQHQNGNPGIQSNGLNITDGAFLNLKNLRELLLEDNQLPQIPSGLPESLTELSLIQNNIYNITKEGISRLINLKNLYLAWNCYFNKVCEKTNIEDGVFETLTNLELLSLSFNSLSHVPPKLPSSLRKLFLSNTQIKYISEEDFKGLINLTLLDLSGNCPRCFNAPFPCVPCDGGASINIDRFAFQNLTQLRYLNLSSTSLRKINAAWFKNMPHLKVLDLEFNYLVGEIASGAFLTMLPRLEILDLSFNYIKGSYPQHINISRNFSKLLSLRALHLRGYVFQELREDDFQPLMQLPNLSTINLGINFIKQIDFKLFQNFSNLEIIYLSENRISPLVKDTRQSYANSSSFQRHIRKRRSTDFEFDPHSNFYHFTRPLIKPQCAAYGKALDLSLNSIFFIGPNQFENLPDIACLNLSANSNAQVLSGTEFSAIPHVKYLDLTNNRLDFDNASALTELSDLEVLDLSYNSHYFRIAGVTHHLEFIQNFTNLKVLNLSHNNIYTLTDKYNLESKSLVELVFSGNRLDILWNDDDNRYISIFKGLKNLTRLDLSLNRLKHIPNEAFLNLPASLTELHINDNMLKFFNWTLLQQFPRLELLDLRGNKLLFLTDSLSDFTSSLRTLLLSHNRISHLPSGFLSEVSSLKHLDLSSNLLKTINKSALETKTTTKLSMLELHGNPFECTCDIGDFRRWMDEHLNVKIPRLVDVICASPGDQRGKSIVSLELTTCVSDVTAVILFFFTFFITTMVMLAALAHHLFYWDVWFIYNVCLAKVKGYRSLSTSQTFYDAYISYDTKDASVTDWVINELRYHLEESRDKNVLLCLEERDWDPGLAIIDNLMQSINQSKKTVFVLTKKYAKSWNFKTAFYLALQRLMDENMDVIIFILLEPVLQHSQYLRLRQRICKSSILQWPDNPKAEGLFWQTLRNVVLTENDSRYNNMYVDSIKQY
# Assay: TLR8 inhibition reporter assay (HEK-Blue cells, SEAP reporter, R848 stimulation)
# Format: cell-based
# Conditions: HEK-Blue cells overexpressing human TLR8, R848 15.9 μM
# How it was run: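 Dose-response testing from 0.05 nM to 50 μM final was done on reporter cells for 22 hours at 37° C. Secreted SEAP was then detected, and inhibition was calculated as percent reduction of the agonist-plus-DMSO signal compared with wells given a known inhibitor.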
row,SMILES,IC50 [nM]
1,"COc1ccc(-c2[nH]c3ccc(C4CCN(C5CCN(CC6CC6)CC5)CC4)cc3c2C)cc1OC [Example 3, 5-(1′-(cyclopropylmethyl)-[1,4′-bipiperidin]-4-yl)-2-(3,4-dimethoxyphenyl)-3-methyl-1H-indole]",216
2,"COc1ccc(-c2[nH]c3ccc(C4CCN(C(C)CO)CC4)cc3c2C)cc1OC (stereo not drawn) [Example 43, 2-(4-(2-(3,4-dimethoxyphenyl)-3-methyl-1H-indol-5-yl)piperidin-1-yl)propan-1-ol]",926
3,"CCN1CCC(N2CCC(c3ccc4[nH]c(-c5ccc(OC)c(OC)c5)c(C)c4c3)CC2)CC1 [Example 44, 2-(3,4-dimethoxyphenyl)-5-(1′-ethyl-[1,4′-bipiperidin]-4-yl)-3-methyl-1H-indole]",926
4,"COc1ccc(-c2[nH]c3ccc(C4CCN(C5CC(C)(C)NC(C)(C)C5)CC4)cc3c2C)cc1OC [Example 48, 2-(3,4-dimethoxyphenyl)-3-methyl-5-(2′,2′,6′,6′-tetramethyl-[1,4′-bipiperidin]-4-yl)-1H-indole]",616
5,"COc1ccc(-c2[nH]c3ccc(C4CCN(CC5CCCCN5C)CC4)cc3c2C)cc1OC (stereo not drawn) [Example 49, 2-(3,4-dimethoxyphenyl)-3-methyl-5-(1-((1-methylpiperidin-2-yl)methyl)piperidin-4-yl)-1H-indole]",260
6,"COc1ccc(-c2[nH]c3ccc(C4CCN(C5CCN(CCC(F)(F)F)CC5)CC4)cc3c2C)cc1OC [Example 50, 2-(3,4-dimethoxyphenyl)-3-methyl-5-(1′-(3,3,3-trifluoropropyl)-[1,4′-bipiperidin]-4-yl)-1H-indole]",510
7,"COc1ccc(-c2[nH]c3ccc(C4CCN(C5CCN(CC(O)CO)CC5)CC4)cc3c2C)cc1OC (stereo not drawn) [Example 52, 3-(4-(2-(3,4-dimethoxyphenyl)-3-methyl-1H-indol-5-yl)-[1,4′-bipiperidin]-1′-yl)propane-1,2-diol]",333
8,"CCCCCN1CCC(N2CCC(c3ccc4[nH]c(-c5ccc(OC)c(OC)c5)c(C)c4c3)CC2)CC1 [Example 55, 2-(3,4-dimethoxyphenyl)-3-methyl-5-(1′-pentyl-[1,4′-bipiperidin]-4-yl)-1H-indole]",293
9,"COc1ccc(-c2[nH]c3ccc(C4CCN(C5CCN(CC6CCCCC6)CC5)CC4)cc3c2C)cc1OC [Example 58, 5-(1′-(cyclohexylmethyl)-[1,4′-bipiperidin]-4-yl)-2-(3,4-dimethoxyphenyl)-3-methyl-1H-indole]",258
10,"COc1ccc(-c2[nH]c3ccc(C4CCN(C5CCN(Cc6cncn6C)CC5)CC4)cc3c2C)cc1OC [Example 59, 2-(3,4-dimethoxyphenyl)-3-methyl-5-(1′-((1-methyl-1H-imidazol-5-yl)methyl)-[1,4′-bipiperidin]-4-yl)-1H-indole]",187
11,"COc1ccc(-c2[nH]c3ccc(C4CCN(C5CCN(C6CCCC6)CC5)CC4)cc3c2C)cc1OC [Example 62, 5-(1′-cyclopentyl-[1,4′-bipiperidin]-4-yl)-2-(3,4-dimethoxyphenyl)-3-methyl-1H-indole]",217
12,"COc1ccc(-c2[nH]c3ccc(C4CCN(C5CCN(Cc6cccs6)CC5)CC4)cc3c2C)cc1OC [Example 64, 2-(3,4-dimethoxyphenyl)-3-methyl-5-(1′-(thiophen-2-ylmethyl)-[1,4′-bipiperidin]-4-yl)-1H-indole]",195
13,"COc1ccc(-c2[nH]c3ccc(C4CCN(C5CCN(CC6CCCC6)CC5)CC4)cc3c2C)cc1OC [Example 65, 5-(1′-(cyclopentylmethyl)-[1,4′-bipiperidin]-4-yl)-2-(3,4-dimethoxyphenyl)-3-methyl-1H-indole]",41400
14,"COc1ccc(-c2[nH]c3ccc(C4CCN(C5CCN(C6CCCCC6)CC5)CC4)cc3c2C)cc1OC [Example 68, 5-(1′-cyclohexyl-[1,4′-bipiperidin]-4-yl)-2-(3,4-dimethoxyphenyl)-3-methyl-1H-indole]",182
15,"COc1ccc(-c2[nH]c3ccc(C4CCN(C5CCN(CC(C)(C)CO)CC5)CC4)cc3c2C)cc1OC [Example 69, 3-(4-(2-(3,4-dimethoxyphenyl)-3-methyl-1H-indol-5-yl)-[1,4′-bipiperidin]-1′-yl)-2,2-dimethylpropan-1-ol]",317

# Second part, the compound after the results:
row,IC50 [nM],SMILES
1,312,"COc1ccc(-c2[nH]c3ccc(C4CCN(C5CCN(Cc6nccs6)CC5)CC4)cc3c2C)cc1OC [Example 72, 2-((4-(2-(3,4-dimethoxyphenyl)-3-methyl-1H-indol-5-yl)-[1,4′-bipiperidin]-1′-yl)methyl)thiazole]"
2,102,COc1ccc(-c2[nH]c3ccc(C4CCN(C5CCN(CC6CCOC6)CC5)CC4)cc3c2C)cc1OC (stereo not drawn) [Example 74]
3,325,"COc1ccc(-c2[nH]c3ccc(C4CCN(C5CCN(CC(C)(C)C)CC5)CC4)cc3c2C)cc1OC [Example 75, 2-(3,4-dimethoxyphenyl)-3-methyl-5-(1′-neopentyl-[1,4′-bipiperidin]-4-yl)-1H-indole]"
4,238,"COc1ccc(-c2[nH]c3ccc(C4CCN(C5CCN(Cc6ccco6)CC5)CC4)cc3c2C)cc1OC [Example 76, 2-(3,4-dimethoxyphenyl)-5-(1′-(furan-2-ylmethyl)-[1,4′-bipiperidin]-4-yl)-3-methyl-1H-indole]"
5,143,"COc1ccc(-c2[nH]c3ccc(C4CCN(C5CCN(Cc6cccn6C)CC5)CC4)cc3c2C)cc1OC [Example 78, 2-(3,4-dimethoxyphenyl)-3-methyl-5-(1′-((1-methyl-1H-pyrrol-2-yl)methyl)-[1,4′-bipiperidin]-4-yl)-1H-indole]"
6,284,"COc1ccc(-c2[nH]c3ccc(C4CCN(C5CCN(C6CCC(C)CC6)CC5)CC4)cc3c2C)cc1OC (stereo not drawn) [Example 80, 2-(3,4-dimethoxyphenyl)-3-methyl-5-(1′-(4-methylcyclohexyl)-[1,4′-bipiperidin]-4-yl)-1H-indole]"
7,143,"COc1ccc(-c2[nH]c3ccc(C4CCN(C5CCN(C6CCC(O)CC6)CC5)CC4)cc3c2C)cc1OC (stereo not drawn) [Example 84, 4-(4-(2-(3,4-dimethoxyphenyl)-3-methyl-1H-indol-5-yl)-[1,4′-bipiperidin]-1′-yl)cyclohexan-1-ol]"
8,352,"COc1ccc(-c2[nH]c3ccc(C4CCN(C5CCCN(C)CC5)CC4)cc3c2C)cc1OC (stereo not drawn) [Example 91, 2-(3,4-dimethoxyphenyl)-3-methyl-5-(1-(1-methylazepan-4-yl)piperidin-4-yl)-1H-indole]"
9,302,"COc1ccc(-c2[nH]c3ccc(C4CCN(C5CCCN(C6CCCC6)CC5)CC4)cc3c2C)cc1OC (stereo not drawn) [Example 93, 5-(1-(1-cyclopentylazepan-4-yl)piperidin-4-yl)-2-(3,4-dimethoxyphenyl)-3-methyl-1H-indole]"
10,281,"COc1ccc(-c2[nH]c3ccc(C4CCN(C5CCCN(CC6CC6)CC5)CC4)cc3c2C)cc1OC (stereo not drawn) [Example 94, 5-(1-(1-(cyclopropylmethyl)azepan-4-yl)piperidin-4-yl)-2-(3,4-dimethoxyphenyl)-3-methyl-1H-indole]"
11,195,"COc1ccc(-c2[nH]c3ccc(C4CCN(C5CCCN(CC(C)C)CC5)CC4)cc3c2C)cc1OC (stereo not drawn) [Example 95, 2-(3,4-dimethoxyphenyl)-5-(1-(1-isobutylazepan-4-yl)piperidin-4-yl)-3-methyl-1H-indole]"
12,196,"CCN1CCCC(N2CCC(c3ccc4[nH]c(-c5ccc(OC)c(OC)c5)c(C)c4c3)CC2)CC1 (stereo not drawn) [Example 97, 2-(3,4-dimethoxyphenyl)-5-(1-(1-ethylazepan-4-yl)piperidin-4-yl)-3-methyl-1H-indole]"
13,2050,"COc1ccc(-c2[nH]c3ccc(C4CCN(C(=O)CNCCC(C)O)CC4)cc3c2C)cc1OC (stereo not drawn) [Example 406, 1-(4-(2-(3,4-dimethoxyphenyl)-3-methyl-1H-indol-5-yl)piperidin-1-yl)-2-((3-hydroxybutyl)amino)ethan-1-one]"
14,≥ 50000,"COc1ccc(-c2[nH]c3ccc(C4CCN(C(=O)CN5CCC(N(C)C)CC5)CC4)cc3c2C)cc1OC [Example 407, 1-(4-(2-(3,4-dimethoxyphenyl)-3-methyl-1H-indol-5-yl)piperidin-1-yl)-2-(4-(dimethylamino)piperidin-1-yl)ethan-1-one]"
15,4770,"COc1ccc(-c2[nH]c3ccc(C4CCN(C(=O)CN(C)CCO)CC4)cc3c2C)cc1OC [Example 408, 1-(4-(2-(3,4-dimethoxyphenyl)-3-methyl-1H-indol-5-yl)piperidin-1-yl)-2-((2-hydroxyethyl)(methyl)amino)ethan-1-one]"
